Test results reported in ChEMBL document CHEMBL5257025, “Artemisinin-Derived Dimers: Potent Antimalarial and Anticancer Agents” (J Med Chem, 2016).

Tests used:
BT-474 = assay: Antiproliferative activity against human BT-474 cells assessed as reduction in cell growth measured after 72 hrs by MTT assay; format: functional, cell-based; conditions: BT-474, 72 h
MDA-MB-231 = assay: Antiproliferative activity against human MDA-MB-231 cells assessed as reduction in cell viability measured after 48 hrs by MTT assay; format: functional, cell-based; conditions: MDA-MB-231, 48 h
[1] = Antiproliferative activity against human 1205Lu cells assessed as reduction in cell growth; format: functional, cell-based
[2] = Cytotoxicity against human HFF cells assessed as cell growth inhibition measured after 48 hrs by MTT assay; format: toxicity, cell-based
HCT-116 = assay: Antiproliferative activity against human HCT-116 cells assessed as growth after 48 hrs by MTT assay; format: functional, cell-based; conditions: HCT-116, 48 h
HeLa = assay: Antiproliferative activity against human Hela cells assessed as cell growth inhibition measured after 48 hrs by MTT assay; format: functional, cell-based
Plasmodium falciparum [3] = assay: Antiplasmodial activity against Plasmodium falciparum NF54 assessed as reduction in malarial growth; format: functional, organism-based
[4] = Cytotoxicity against African green monkey Vero cells; format: toxicity, cell-based; conditions: chlorocebus sabaeus, read-out: TC50 (the source's name)
KB = assay: Antiproliferative activity against human KB cells assessed as reduction in cell viability incubated for 48 hrs by MTT assay; format: functional, cell-based
[5] = Antiproliferative activity against human BC cells assessed as growth inhibition; format: functional, cell-based
HT-29 = assay: cells; conditions: Homo sapiens, HT-29, 72 h
P388 = assay: Antiproliferative activity against mouse P388 cells assessed as cell growth inhibition incubated for 72 hrs by MTT assay; format: functional, cell-based; conditions: P388, 72 h
BeWo = assay: Antiproliferative activity against human BeWo cells assessed as reduction in cell viability after 72 hrs by MTT assay; format: functional, cell-based
EL4 = assay: Antiproliferative activity against mouse EL4 cells assessed as cell growth inhibition incubated for 72 hrs by MTT assay; format: functional, cell-based; conditions: EL4, 72 h
MCF7 = assay: Antiproliferative activity against human MCF7 cells assessed as reduction in cell viability measured after 48 hrs by SRB assay; format: functional, cell-based; conditions: MCF7, 48 h
Plasmodium falciparum [6] = assay: Antimalarial activity against Plasmodium falciparum K1 assessed as inhibition of malarial growth; format: functional, organism-based
Plasmodium falciparum [7] = assay: Antimalarial activity against Plasmodium falciparum HB3 assessed as inhibition of malarial growth; format: functional, organism-based
Plasmodium falciparum [8] = assay: Antimalarial activity against Plasmodium falciparum NF54 assessed as reduction in cell growth; format: functional, organism-based

Structure (SMILES): C[C@@H]1CC[C@H]2[C@@H](C)C(CC(CC3O[C@@H]4O[C@]5(C)CC[C@@H]6[C@@H](C)CC[C@H]([C@@H]3C)[C@]46OO5)CN3CCN(C)CC3)O[C@H]3O[C@@]4(C)CC[C@@H]1[C@]32OO4 (stereo not given in full)
- IC50 (BT-474): 0.11 µM
- IC50 (MDA-MB-231): 3.3 µM

Structure (SMILES): C[C@@H]1CC[C@H]2[C@@H](C)C(CC(COP(=O)(Oc3ccccc3)Oc3ccccc3)CC3O[C@@H]4O[C@]5(C)CC[C@@H]6[C@@H](C)CC[C@H]([C@@H]3C)[C@]46OO5)O[C@H]3O[C@@]4(C)CC[C@@H]1[C@]32OO4 (stereo not given in full)
- IC50 [1]: 0.06 µM
- IC50 at 48 h [2]: 55.8 µM
- IC50 (HCT-116): 0.04 µM
- IC50 (HeLa): 0.19 µM

Structure (SMILES): C[C@@H]1CC[C@H]2[C@H](C[C@]3(CCCCc4ccccc4)O[C@H]4O[C@@]5(C)CC[C@H]6[C@H](C)CC[C@@H]([C@H]3C)[C@@]46OO5)C(=O)O[C@H]3O[C@@]4(C)CC[C@@H]1[C@]32OO4
- IC50 (Plasmodium falciparum [3]): 0.0034 µM
- CC50 [4]: 2.4 µM
- IC50 (KB): 5.7 µM
- IC50 [5]: 1.2 µM

Structure (SMILES): C[C@@H]1CC[C@H]2[C@@H](C)C(CCNC(=O)CCC(N)C(=O)NCCC3O[C@H]4O[C@@]5(C)CC[C@H]6[C@H](C)CC[C@@H]([C@H]3C)[C@@]46OO5)O[C@H]3O[C@@]4(C)CC[C@@H]1[C@]32OO4 (stereo not given in full)
- IC50 (HT-29): 8.9 µM
- IC50 (P388): 21.3 µM
- IC50 (BeWo): > 27.3 µM
- IC50 (EL4): 22.5 µM
- IC50 (MCF7): 20.9 µM

Structure (SMILES): C[C@@H]1CC[C@H]2[C@@H](C)C(CCS(=O)(=O)CCCS(=O)(=O)CCC3O[C@@H]4O[C@]5(C)CC[C@@H]6[C@@H](C)CC[C@H]([C@@H]3C)[C@]46OO5)O[C@H]3O[C@@]4(C)CC[C@@H]1[C@]32OO4 (stereo not given in full)
- IC50 (HT-29): 0.5 µM
- IC50 (P388): 11 µM
- IC50 (BeWo): 11.2 µM
- IC50 (EL4): 13.1 µM
- IC50 (MCF7): 7.36 µM

Structure (SMILES): C[C@@H]1CC[C@H]2[C@@H](C)C(CC(CC3O[C@@H]4O[C@]5(C)CC[C@@H]6[C@@H](C)CC[C@H]([C@@H]3C)[C@]46OO5)CN3CCN(c4cccnc4)CC3)O[C@H]3O[C@@]4(C)CC[C@@H]1[C@]32OO4 (stereo not given in full)
- IC50 (BT-474): 0.07 µM
- IC50 (MDA-MB-231): 10 µM

Structure (SMILES): C[C@H]1[C@H](CCCC[C@H]2O[C@H]3O[C@@]4(C)CC[C@H]5[C@H](C)CC[C@@H]([C@H]2C)[C@@]35OO4)O[C@H]2O[C@@]3(C)CC[C@H]4[C@H](C)CC[C@@H]1[C@@]24OO3
- CC50 [4]: 10 µM
- IC50 (KB): 1.8 µM
- IC50 (Plasmodium falciparum [6]): 0.0014 µM
- IC50 [5]: 1.6 µM

Structure (SMILES): C[C@H]1[C@H](OC(=O)CCC(=O)O)O[C@@H]2O[C@@]3(C)CC[C@H]4[C@H](C)CC[C@@H]1[C@@]24OO3 [ARTESUNATE]
- IC50 [1]: 7.1 µM
- CC50 at 48 h ([2]; time 48 hrs, read-out: TC50): 717 µM
- IC50 (HCT-116): 7.1 µM
- IC50 (HeLa): 7.1 µM

Structure (SMILES): C[C@H]1[C@H](CCCCC[C@H]2O[C@H]3O[C@@]4(C)CC[C@H]5[C@H](C)CC[C@@H]([C@H]2C)[C@@]35OO4)O[C@H]2O[C@@]3(C)CC[C@H]4[C@H](C)CC[C@@H]1[C@@]24OO3
- CC50 [4]: 2.8 µM
- IC50 (KB): 0.76 µM
- IC50 (Plasmodium falciparum [6]): 0.00091 µM
- IC50 [5]: 0.36 µM

Structure (SMILES): C[C@H]1[C@@H](CCNC(=O)CC[C@H]2O[C@H]3O[C@@]4(C)CC[C@H]5[C@H](C)CC[C@@H]([C@H]2C)[C@@]35OO4)O[C@H]2O[C@@]3(C)CC[C@H]4[C@H](C)CC[C@@H]1[C@@]24OO3
- IC50 (HT-29): 1.1 µM
- IC50 (P388): 16.8 µM
- IC50 (BeWo): 12.1 µM
- IC50 (EL4): 10.1 µM
- IC50 (MCF7): 0.008 µM

Structure (SMILES): C[C@@H]1CC[C@H]2[C@@H](C)C(CC(COP(=O)(O)Oc3ccccc3)CC3O[C@@H]4O[C@]5(C)CC[C@@H]6[C@@H](C)CC[C@H]([C@@H]3C)[C@]46OO5)O[C@H]3O[C@@]4(C)CC[C@@H]1[C@]32OO4 (stereo not given in full)
- IC50 at 48 h [2]: 56.5 µM
- IC50 (HCT-116): 6.67 µM
- IC50 (HeLa): 18.6 µM

Structure (SMILES): C[C@@H]1CC[C@H]2[C@@H](C)C(CC(CC3O[C@@H]4O[C@]5(C)CC[C@@H]6[C@@H](C)CC[C@H]([C@@H]3C)[C@]46OO5)CS(=O)(=O)c3ccc(CO)cc3)O[C@H]3O[C@@]4(C)CC[C@@H]1[C@]32OO4 (stereo not given in full)
- IC50 [1]: 0.1 µM
- IC50 at 48 h [2]: 4.9 µM
- IC50 (HCT-116): 0.07 µM
- IC50 (HeLa): 0.56 µM

Structure (SMILES): C[C@@H]1CC[C@H]2[C@@H](C)C(CC(CC3O[C@@H]4O[C@]5(C)CC[C@@H]6[C@@H](C)CC[C@H]([C@@H]3C)[C@]46OO5)CN3CCN(c4ccccn4)CC3)O[C@H]3O[C@@]4(C)CC[C@@H]1[C@]32OO4 (stereo not given in full)
- IC50 (BT-474): 0.022 µM
- IC50 (MDA-MB-231): 5 µM

Structure (SMILES): C[C@@H]1CC[C@H]2[C@@H](C)C(CCOCc3ccccc3COCCC3O[C@H]4O[C@@]5(C)CC[C@H]6[C@H](C)CC[C@@H]([C@H]3C)[C@@]46OO5)O[C@H]3O[C@@]4(C)CC[C@@H]1[C@]32OO4 (stereo not given in full)
- IC50 (Plasmodium falciparum [6]): 0.0029 µM
- IC50 (Plasmodium falciparum [7]): 0.0013 µM

Structure (SMILES): C[C@@H]1CC[C@H]2[C@H](C[C@]3(Cc4cccc(F)c4)O[C@H]4O[C@@]5(C)CC[C@H]6[C@H](C)CC[C@@H]([C@H]3C)[C@@]46OO5)C(=O)O[C@H]3O[C@@]4(C)CC[C@@H]1[C@]32OO4
- CC50 [4]: 5.5 µM
- IC50 (KB): 4 µM
- IC50 [5]: 3.5 µM

Structure (SMILES): CO[C@@]12[C@H](COC(N)=O)C3=C(C(=O)C(C)=C(N)C3=O)N1C[C@@H]1N[C@@H]12 [MITOMYCIN]
- IC50 (HT-29): 0.06 µM
- IC50 (P388): 0.06 µM
- IC50 (BeWo): 0.06 µM
- IC50 (EL4): 0.06 µM
- IC50 (MCF7): 0.06 µM

Structure (SMILES): CC(=O)N1CCN(CC(CC2O[C@@H]3O[C@]4(C)CC[C@@H]5[C@@H](C)CC[C@H]([C@@H]2C)[C@]35OO4)CC2O[C@H]3O[C@@]4(C)CC[C@H]5[C@H](C)CC[C@@H]([C@H]2C)[C@@]35OO4)CC1 (stereo not given in full)
- IC50 (BT-474): 0.06 µM
- IC50 (MDA-MB-231): 8 µM

Structure (SMILES): C[C@H]1[C@@H](CCCCNC(=O)CC[C@H]2O[C@H]3O[C@@]4(C)CC[C@H]5[C@H](C)CC[C@@H]([C@H]2C)[C@@]35OO4)O[C@H]2O[C@@]3(C)CC[C@H]4[C@H](C)CC[C@@H]1[C@@]24OO3
- IC50 (HT-29): 30.5 µM
- IC50 (P388): > 30.2 µM
- IC50 (BeWo): > 30.2 µM
- IC50 (EL4): > 30.2 µM
- IC50 (MCF7): > 30.2 µM

Structure (SMILES): C[C@@H]1CC[C@H]2[C@@H](C)C(CC(CC3O[C@@H]4O[C@]5(C)CC[C@@H]6[C@@H](C)CC[C@H]([C@@H]3C)[C@]46OO5)C(=O)NN)O[C@H]3O[C@@]4(C)CC[C@@H]1[C@]32OO4 (stereo not given in full)
- IC50 (BT-474): 0.013 µM

Structure (SMILES): C[C@@H]1CC[C@H]2[C@H](C[C@]3(Cc4ccc(F)cc4)O[C@H]4O[C@@]5(C)CC[C@H]6[C@H](C)CC[C@@H]([C@H]3C)[C@@]46OO5)C(=O)O[C@H]3O[C@@]4(C)CC[C@@H]1[C@]32OO4
- CC50 [4]: 1.1 µM
- IC50 (KB): 7.7 µM
- IC50 [5]: 7.4 µM

Structure (SMILES): CCCCC[C@@]1(C[C@@H]2C(=O)O[C@H]3O[C@@]4(C)CC[C@H]5[C@H](C)CC[C@@H]2[C@@]35OO4)O[C@H]2O[C@@]3(C)CC[C@H]4[C@H](C)CC[C@@H]([C@H]1C)[C@@]24OO3
- CC50 [4]: 63 µM
- IC50 (KB): 23 µM
- IC50 [5]: 36 µM

Structure (SMILES): C[C@@H]1CC[C@H]2[C@@H](C)C(CCS(=O)(=O)CCC3O[C@@H]4O[C@]5(C)CC[C@@H]6[C@@H](C)CC[C@H]([C@@H]3C)[C@]46OO5)O[C@H]3O[C@@]4(C)CC[C@@H]1[C@]32OO4 (stereo not given in full)
- IC50 (HT-29): 0.58 µM
- IC50 (P388): 8.55 µM
- IC50 (BeWo): 1.59 µM
- IC50 (EL4): 0.82 µM
- IC50 (MCF7): 0.04 µM

Structure (SMILES): C[C@@H]1CC[C@H]2[C@@H](C)C(CC(COC(=O)CCC(=O)O)CC3O[C@H]4O[C@@]5(C)CC[C@H]6[C@H](C)CC[C@@H]([C@H]3C)[C@@]46OO5)O[C@H]3O[C@@]4(C)CC[C@@H]1[C@]32OO4 (stereo not given in full)
- IC50 (BT-474): 0.39 µM
- IC50 (Plasmodium falciparum [8]): 0.002 µM
- IC50 (MDA-MB-231): 32 µM
